Experimental data as given in patent publication US10550124B2, “Atropisomerism for increased kinase inhibitor selectivity” (SAN DIEGO STATE UNIVERSITY RESEARCH FOUNDATION, priority 2015, dated 2020).

What was measured:
Assay type in all cases: biochemical
Abl = Abl (Homo sapiens, UniProt P00519); experiment: Z′-LYTE kinase inhibition assay, Abl; details: for % inhibition: average of 2 runs
Text: (§1) All samples were sent out to Life Technologies to obtain kinase inhibition data. A brief description of the assays and analyses are included below.
(§2) Assay Theory (SelectScreen® Kinase Profiling Services (Life Technologies, Madison, Wis. USA). The Z′-LYTE® biochemical assay employs a fluorescence-based, coupled-enzyme format and is based on the differential sensitivity of phosphorylated and non-phosphorylated peptides to proteolytic cleavage. The peptide substrate is labeled with two fluorophores one at each end—that make up a FRET pair.
(§3) In the primary reaction, the kinase transfers the gamma-phosphate of ATP to a single tyrosine, serine or threonine residue in a synthetic FRET-peptide. In the secondary reaction, a site-specific protease recognizes and cleaves non-phosphorylated FRET-peptides.
(§4) Phosphorylation of FRET-peptides suppresses cleavage by the Development Reagent. Cleavage disrupts FRET between the donor (i.e., coumarin) and acceptor (i.e., fluorescein) fluorophores on the FRET-peptide, whereas uncleaved, phosphorylated FRET-peptides maintain FRET. A ratiometric method, which calculates the ratio (the Emission Ratio) of donor emission to acceptor emission after excitation of the donor fluorophore at 400 nm, is used to quantitate reaction progress, as shown in the equation below: […]
(§5) A significant benefit of this ratiometric method for quantitating reaction progress is the elimination of well-to-well variations in FRET-peptide concentration and signal intensities. As a result, the assay yields very high Z′-factor values (>0.7) at a low percent phosphorylation. Both cleaved and uncleaved FRET-peptides contribute to the fluorescence signals and therefore to the Emission Ratio. The extent of phosphorylation of the FRET-peptide can be calculated from the Emission Ratio. The Emission Ratio will remain low if the FRET-peptide is phosphorylated (i.e., no kinase inhibition) and will he high if the FRET-peptide is non-phosphorylated (i.e., kinase inhibition).

Alk = Alk (Homo sapiens, UniProt Q9UM73); experiment: Z′-LYTE kinase inhibition assay, Alk; details: for % inhibition: average of 2 runs
Text: as §1, §2, §3, §4, §5

Blk = Blk (Homo sapiens, UniProt P51451); experiment: Z′-LYTE kinase inhibition assay, Blk; details: for % inhibition: average of 2 runs
Text: as §1, §2, §3, §4, §5

BTK = BTK (Homo sapiens, UniProt Q06187); experiment: Z′-LYTE kinase inhibition assay, BTK; details: for % inhibition: average of 2 runs
Text: as §1, §2, §3, §4, §5

CSK = CSK (Homo sapiens, UniProt P41240); experiment: Z′-LYTE kinase inhibition assay, CSK; details: for % inhibition: average of 2 runs
Text: as §1, §2, §3, §4, §5

EGFR = EGFR (Homo sapiens, UniProt P00533); experiment: Z′-LYTE kinase inhibition assay, EGFR; details: for % inhibition: average of 2 runs
Text: as §1, §2, §3, §4, §5

Her-2 = Her-2 (Homo sapiens, UniProt P04626); experiment: Z′-LYTE kinase inhibition assay, Her-2; details: average of 2 runs
Text: as §1, §2, §3, §4, §5

Fgr = Fgr (Homo sapiens, UniProt P09769); experiment: Z′-LYTE kinase inhibition assay, Fgr; details: for % inhibition: average of 2 runs
Text: as §1, §2, §3, §4, §5

Fyn = Fyn (Homo sapiens, UniProt P06241); experiment: Z′-LYTE kinase inhibition assay, Fyn; details: for % inhibition: average of 2 runs
Text: as §1, §2, §3, §4, §5

Hck = Hck (Homo sapiens, UniProt P08631); experiment: Z′-LYTE kinase inhibition assay, Hck; details: for % inhibition: average of 2 runs
Text: as §1, §2, §3, §4, §5

Kit = Kit (Homo sapiens, UniProt P10721); experiment: Z′-LYTE kinase inhibition assay, Kit; details: for % inhibition: average of 2 runs
Text: as §1, §2, §3, §4, §5

Lck = Lck (Homo sapiens, UniProt P06239); experiment: Z′-LYTE kinase inhibition assay, Lck; details: for % inhibition: average of 2 runs
Text: as §1, §2, §3, §4, §5

Lyn = Lyn (Homo sapiens, UniProt P07948); experiment: Z′-LYTE kinase inhibition assay, Lyn; details: for % inhibition: average of 2 runs
Text: as §1, §2, §3, §4, §5

pdgfr-a = pdgfr-a (Homo sapiens, UniProt P16234); experiment: Z′-LYTE kinase inhibition assay, pdgfr-a; details: for % inhibition: average of 2 runs
Text: as §1, §2, §3, §4, §5

pdgfr-b = pdgfr-b (Homo sapiens, UniProt P09619); experiment: Z′-LYTE kinase inhibition assay, pdgfr-b; details: for % inhibition: average of 2 runs
Text: as §1, §2, §3, §4, §5

Ret = Ret (Homo sapiens, UniProt P07949); experiment: Z′-LYTE kinase inhibition assay, Ret; details: for % inhibition: average of 2 runs
Text: as §1, §2, §3, §4, §5

Yes = Yes (Homo sapiens, UniProt P07947); experiment: Z′-LYTE kinase inhibition assay, Yes; details: for % inhibition: average of 2 runs
Text: as §1, §2, §3, §4, §5

Src kinase = Src kinase (Homo sapiens, UniProt P12931); experiment: Z′-LYTE kinase inhibition assay, Src
Text: Based on the observed stereochemical stabilities, we chose 1f, 2e, and 2f for further study and obtained inhibition data against Src kinase from Life Technologies' Z′-LYTE™ kinase assay (Scheme 3).
as §1, §2, §3, §4, §5

[1] = tested on: panel of 18 tyrosine kinases; experiment: Kinase inhibitor profiling across a panel of tyrosine kinases (selectivity); details: for S(40%): number of kinases inhibited greater than 40% divided by number of kinases tested (including Src)
Procedure: In order to probe the effect of atropisomeric conformation on kinase selectivity we subjected 1f, 2e, and 2f to kinase inhibitor profiling across a panel of tyrosine kinases at 1000 nM and 5000 nM (data for 2e shown in Scheme 4 below).
To analyze each analog's selectivity across the panel we turned to selectivity scores (Davis et al., Nat. Biotechnol. 2011, 29, 1046-51), simply the number of kinases inhibited above a certain threshold divided by the number of kinases evaluated. […] For example at 1000 nM 2e-(R) yielded an S(40%) of 0.11 while 2e-(S) gave an S(40%) of 0.16. […] Differences in selectivity between 2e-(R) and 2e-(S) at 5000 nM (4.5 times the IC50 of 2e-(S) toward Src) and for 5 at 1000 nM (6.25 times the IC50 of 5 toward Src) can be viewed graphically across tyrosine kinases (FIG. 3). Importantly, similar trends were also observed across each of the atropisomeric series tested.
as §1, §2, §3, §4, §5

[2] = % inhibition 2e-(S)/% inhibition 2e-(R) at 5000 nM

Chain of Fgr (P09769 whole entry): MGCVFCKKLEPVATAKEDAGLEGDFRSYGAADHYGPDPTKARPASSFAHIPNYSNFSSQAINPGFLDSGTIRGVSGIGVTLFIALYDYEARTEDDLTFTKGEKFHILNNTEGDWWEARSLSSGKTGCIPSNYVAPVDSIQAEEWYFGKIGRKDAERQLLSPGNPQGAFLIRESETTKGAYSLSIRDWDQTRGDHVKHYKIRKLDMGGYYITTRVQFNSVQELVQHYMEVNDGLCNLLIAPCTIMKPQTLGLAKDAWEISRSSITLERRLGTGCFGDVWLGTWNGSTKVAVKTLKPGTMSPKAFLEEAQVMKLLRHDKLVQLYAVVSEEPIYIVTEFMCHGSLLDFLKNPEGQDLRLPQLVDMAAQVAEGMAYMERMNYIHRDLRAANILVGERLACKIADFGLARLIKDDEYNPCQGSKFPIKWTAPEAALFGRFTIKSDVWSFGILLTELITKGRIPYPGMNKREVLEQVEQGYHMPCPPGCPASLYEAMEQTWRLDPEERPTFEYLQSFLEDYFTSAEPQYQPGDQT
Chain of Ret (P07949 29-1114): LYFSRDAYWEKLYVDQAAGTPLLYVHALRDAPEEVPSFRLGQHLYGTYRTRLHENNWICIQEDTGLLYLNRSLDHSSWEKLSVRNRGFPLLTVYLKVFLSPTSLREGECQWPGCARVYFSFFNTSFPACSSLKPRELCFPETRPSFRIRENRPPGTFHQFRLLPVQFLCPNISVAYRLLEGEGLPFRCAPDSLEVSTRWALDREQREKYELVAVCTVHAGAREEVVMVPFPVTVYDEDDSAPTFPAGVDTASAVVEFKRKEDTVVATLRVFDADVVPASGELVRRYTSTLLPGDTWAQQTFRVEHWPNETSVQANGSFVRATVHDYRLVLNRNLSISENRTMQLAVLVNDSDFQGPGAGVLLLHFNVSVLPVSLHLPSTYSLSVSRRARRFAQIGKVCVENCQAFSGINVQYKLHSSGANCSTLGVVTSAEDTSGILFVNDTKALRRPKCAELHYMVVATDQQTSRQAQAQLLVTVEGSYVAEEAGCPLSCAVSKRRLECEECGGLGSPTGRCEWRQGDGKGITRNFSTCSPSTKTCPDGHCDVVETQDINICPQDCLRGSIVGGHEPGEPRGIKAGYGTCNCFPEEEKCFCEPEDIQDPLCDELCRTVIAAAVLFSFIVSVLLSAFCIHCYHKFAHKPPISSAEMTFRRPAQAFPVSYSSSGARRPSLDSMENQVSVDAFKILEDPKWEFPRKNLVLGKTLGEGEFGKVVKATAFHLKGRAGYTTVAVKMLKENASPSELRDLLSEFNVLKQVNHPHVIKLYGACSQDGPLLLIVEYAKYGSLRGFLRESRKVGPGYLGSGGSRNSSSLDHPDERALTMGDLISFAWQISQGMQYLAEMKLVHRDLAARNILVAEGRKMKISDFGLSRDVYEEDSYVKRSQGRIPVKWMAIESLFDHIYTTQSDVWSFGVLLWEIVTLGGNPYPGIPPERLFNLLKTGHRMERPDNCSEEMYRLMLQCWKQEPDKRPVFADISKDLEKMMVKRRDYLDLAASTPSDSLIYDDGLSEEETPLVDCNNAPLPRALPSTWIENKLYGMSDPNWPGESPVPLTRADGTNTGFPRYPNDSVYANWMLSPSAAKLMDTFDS
Chain of Alk (Q9UM73 19-1620): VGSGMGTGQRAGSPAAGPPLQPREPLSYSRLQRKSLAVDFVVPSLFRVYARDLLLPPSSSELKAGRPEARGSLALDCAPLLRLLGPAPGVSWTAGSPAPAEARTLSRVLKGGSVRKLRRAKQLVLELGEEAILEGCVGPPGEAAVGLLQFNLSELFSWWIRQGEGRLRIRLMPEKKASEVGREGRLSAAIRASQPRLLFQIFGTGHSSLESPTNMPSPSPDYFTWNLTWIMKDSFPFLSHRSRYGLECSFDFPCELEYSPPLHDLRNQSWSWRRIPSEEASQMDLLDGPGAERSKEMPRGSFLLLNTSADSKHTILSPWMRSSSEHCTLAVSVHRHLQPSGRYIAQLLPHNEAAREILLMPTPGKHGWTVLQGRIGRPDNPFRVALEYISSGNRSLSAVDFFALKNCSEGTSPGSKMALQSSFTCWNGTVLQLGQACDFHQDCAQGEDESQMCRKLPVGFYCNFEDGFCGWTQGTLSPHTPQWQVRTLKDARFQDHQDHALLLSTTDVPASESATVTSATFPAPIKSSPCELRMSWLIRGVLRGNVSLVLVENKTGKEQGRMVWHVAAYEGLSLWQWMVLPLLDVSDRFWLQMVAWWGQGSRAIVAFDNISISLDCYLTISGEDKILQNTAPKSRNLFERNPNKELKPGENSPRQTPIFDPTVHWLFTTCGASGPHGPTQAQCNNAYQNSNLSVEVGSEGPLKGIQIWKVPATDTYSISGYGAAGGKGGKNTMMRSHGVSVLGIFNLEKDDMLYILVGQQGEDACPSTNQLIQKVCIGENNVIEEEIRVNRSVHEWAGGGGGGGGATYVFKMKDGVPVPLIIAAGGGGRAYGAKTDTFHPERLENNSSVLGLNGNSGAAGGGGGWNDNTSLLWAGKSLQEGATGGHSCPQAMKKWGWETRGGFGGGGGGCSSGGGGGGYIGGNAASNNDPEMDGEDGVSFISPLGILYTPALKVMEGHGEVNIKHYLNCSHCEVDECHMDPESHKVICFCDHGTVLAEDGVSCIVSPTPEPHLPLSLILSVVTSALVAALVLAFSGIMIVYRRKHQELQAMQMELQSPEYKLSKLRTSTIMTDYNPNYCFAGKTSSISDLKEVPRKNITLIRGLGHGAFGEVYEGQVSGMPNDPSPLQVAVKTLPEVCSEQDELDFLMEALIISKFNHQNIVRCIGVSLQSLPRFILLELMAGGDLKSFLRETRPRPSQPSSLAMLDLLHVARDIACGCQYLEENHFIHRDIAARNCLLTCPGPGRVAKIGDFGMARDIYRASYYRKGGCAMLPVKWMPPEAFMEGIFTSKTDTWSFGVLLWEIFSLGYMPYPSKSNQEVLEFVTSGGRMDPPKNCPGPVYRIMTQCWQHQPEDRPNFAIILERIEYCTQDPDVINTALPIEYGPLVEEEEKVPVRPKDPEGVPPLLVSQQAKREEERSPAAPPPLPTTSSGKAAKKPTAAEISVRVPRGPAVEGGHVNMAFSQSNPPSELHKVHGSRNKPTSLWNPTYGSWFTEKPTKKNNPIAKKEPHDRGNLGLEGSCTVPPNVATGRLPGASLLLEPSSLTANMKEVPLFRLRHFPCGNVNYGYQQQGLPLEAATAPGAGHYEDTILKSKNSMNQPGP
Chain of Abl (P00519 whole entry): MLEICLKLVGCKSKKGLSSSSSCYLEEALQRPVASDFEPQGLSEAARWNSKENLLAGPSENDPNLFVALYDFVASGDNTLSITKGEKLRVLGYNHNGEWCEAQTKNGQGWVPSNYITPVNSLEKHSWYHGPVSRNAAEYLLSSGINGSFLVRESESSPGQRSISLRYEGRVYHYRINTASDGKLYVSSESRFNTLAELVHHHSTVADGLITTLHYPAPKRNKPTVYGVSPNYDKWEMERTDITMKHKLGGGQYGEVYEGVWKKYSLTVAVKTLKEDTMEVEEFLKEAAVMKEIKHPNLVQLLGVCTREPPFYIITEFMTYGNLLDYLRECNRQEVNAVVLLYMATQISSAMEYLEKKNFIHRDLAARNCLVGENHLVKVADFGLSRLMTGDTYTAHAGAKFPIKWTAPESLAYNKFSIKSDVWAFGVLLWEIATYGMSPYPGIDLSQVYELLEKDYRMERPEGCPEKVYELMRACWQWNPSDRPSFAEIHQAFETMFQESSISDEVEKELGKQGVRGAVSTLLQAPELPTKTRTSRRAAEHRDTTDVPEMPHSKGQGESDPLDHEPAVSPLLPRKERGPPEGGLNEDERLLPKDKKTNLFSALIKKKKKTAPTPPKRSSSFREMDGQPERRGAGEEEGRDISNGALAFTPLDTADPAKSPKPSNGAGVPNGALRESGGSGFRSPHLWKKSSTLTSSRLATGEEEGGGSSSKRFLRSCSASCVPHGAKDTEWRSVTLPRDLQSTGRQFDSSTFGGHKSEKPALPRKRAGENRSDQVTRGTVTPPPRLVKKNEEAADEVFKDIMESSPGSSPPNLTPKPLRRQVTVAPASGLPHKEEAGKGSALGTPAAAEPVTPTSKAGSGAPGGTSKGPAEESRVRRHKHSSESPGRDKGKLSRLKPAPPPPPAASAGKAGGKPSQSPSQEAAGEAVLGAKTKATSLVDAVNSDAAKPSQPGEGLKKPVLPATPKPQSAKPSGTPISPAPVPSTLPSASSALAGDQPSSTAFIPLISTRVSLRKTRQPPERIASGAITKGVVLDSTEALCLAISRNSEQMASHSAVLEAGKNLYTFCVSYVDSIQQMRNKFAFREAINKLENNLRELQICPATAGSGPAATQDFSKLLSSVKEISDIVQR
Chain of Lyn (P07948 whole entry): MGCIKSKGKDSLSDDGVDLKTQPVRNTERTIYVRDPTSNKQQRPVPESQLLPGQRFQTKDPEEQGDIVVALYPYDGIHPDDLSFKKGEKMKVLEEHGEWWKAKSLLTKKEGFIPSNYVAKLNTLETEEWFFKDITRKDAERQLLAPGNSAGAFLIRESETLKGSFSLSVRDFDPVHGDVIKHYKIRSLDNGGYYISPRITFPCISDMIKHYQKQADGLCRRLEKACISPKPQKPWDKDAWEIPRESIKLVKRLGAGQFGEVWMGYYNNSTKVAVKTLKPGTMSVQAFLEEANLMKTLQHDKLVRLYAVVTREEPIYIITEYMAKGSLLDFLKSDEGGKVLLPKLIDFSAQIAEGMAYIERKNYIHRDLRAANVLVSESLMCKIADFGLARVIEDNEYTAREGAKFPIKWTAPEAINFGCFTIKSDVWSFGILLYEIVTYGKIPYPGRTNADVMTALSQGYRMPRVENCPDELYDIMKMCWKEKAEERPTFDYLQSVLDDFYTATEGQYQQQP

IC50 of Kinase/IC50 of Yes (Abl; Abl relative to Yes): 1.96
% inhibition (Abl; Abl, 1000 nM, 1 µM): 36%
% inhibition (Abl; Abl, 5000 nM): 67%
% inhibition (Abl; Abl, 5000 nM, 5 µM): 67%
SIR (5000 nM) (Abl; Abl, % inhibition 2e-(S)/% inhibition 2e-(R) at 5000 nM): 2.57
IC50 (Abl; Abl, error is standard deviation): 1430 nM
% inhibition (Alk; 1000 nM, 1 µM): 5%
% inhibition (Alk; 5000 nM, 5 µM): 7%
SIR (5000 nM) (Alk; [2]): 0.38
% inhibition (Blk; 1000 nM, 1 µM): 21%
% inhibition (Blk; 5000 nM, 5 µM): 47%
SIR (5000 nM) (Blk; [2]): 1.46
% inhibition (BTK; 1000 nM, 1 µM): 18%
% inhibition (BTK; 5000 nM, 5 µM): 54%
SIR (5000 nM) (BTK; [2]): 1.86
% inhibition (CSK; 1000 nM, 1 µM): 19%
% inhibition (CSK; 5000 nM, 5 µM): 45%
SIR (5000 nM) (CSK; [2]): 1.28
IC50 of Kinase/IC50 of Yes (EGFR; EGFR relative to Yes): >10.0
% inhibition (EGFR; EGFR, 1000 nM, 1 µM): 10%
% inhibition (EGFR; EGFR, 5000 nM, 5 µM): 21%
IC50 (EGFR; EGFR, error is standard deviation): > 10000 nM
% inhibition (Her-2; 1000 nM, 1 µM): −7%
% inhibition (Her-2; 5000 nM): 0%
% inhibition (Fgr; 1000 nM, 1 µM): 58%
% inhibition (Fgr; 5000 nM, 5 µM): 81%
SIR (5000 nM) (Fgr; [2]): 1.05
% inhibition (Fyn; 1000 nM, 1 µM): 26%
% inhibition (Fyn; 5000 nM, 5 µM): 56%
SIR (5000 nM) (Fyn; [2]): 1.27
% inhibition (Hck; 1000 nM, 1 µM): 32%
% inhibition (Hck; 5000 nM, 5 µM): 50%
SIR (5000 nM) (Hck; [2]): 1.25
% inhibition (Kit; 1000 nM, 1 µM): 18%
% inhibition (Kit; 5000 nM, 5 µM): 36%
SIR (5000 nM) (Kit; [2]): 1.38
% inhibition (Lck; 1000 nM, 1 µM): 26%
% inhibition (Lck; 5000 nM, 5 µM): 54%
SIR (5000 nM) (Lck; [2]): 1.05
% inhibition (Lyn; 1000 nM, 1 µM): 36%
% inhibition (Lyn; 5000 nM, 5 µM): 75%
SIR (5000 nM) (Lyn; [2]): 1.31
% inhibition (pdgfr-a; 1000 nM): 3%
% inhibition (pdgfr-a; 5000 nM, 5 µM): 13%
SIR (5000 nM) (pdgfr-a; [2]): 1.63
% inhibition (pdgfr-b; 1000 nM, 1 µM): 13%
% inhibition (pdgfr-b; 5000 nM, 5 µM): 16%
SIR (5000 nM) (pdgfr-b; [2]): 1.23
IC50 of Kinase/IC50 of Yes (Ret; Ret relative to Yes): 10.53
% inhibition (Ret; Ret, 1000 nM, 1 µM): 14%
% inhibition (Ret; Ret, 5000 nM): 32%
% inhibition (Ret; Ret, 5000 nM, 5 µM): 32%
SIR (5000 nM) (Ret; Ret, % inhibition 2e-(S)/% inhibition 2e-(R) at 5000 nM): 0.44
IC50 (Ret; Ret, error is standard deviation): 7660 nM
IC50 of Kinase/IC50 of Yes (Yes; Yes relative to Yes): 1
% inhibition (Yes; Yes, 1000 nM): 53%
% inhibition (Yes; Yes, 5000 nM, 5 µM): 77%
SIR (5000 nM) (Yes; Yes, % inhibition 2e-(S)/% inhibition 2e-(R) at 5000 nM): 0.97
IC50 (Yes; Yes, error is standard deviation): 727 nM
IC50 of Kinase/IC50 of Yes (Src kinase; Src relative to Yes): 1.64
IC50 (Src kinase; Src, error is standard deviation): 1190 nM
S(40%) ([1]; 1000 nM): 0.16
S(40%) ([1]; 5000 nM): 0.61
increase of 5's inherent selectivity ([1]; less potent towards Ret): ~8 fold
SMILES: COc1ccc(Cl)c(-c2c(Cl)n(C(C)(C)C)c3ncnc(N)c23)c1 (single isomer, unassigned) [2e-(S), 7-(tert-butyl)-6-chloro-5-(2-chloro-5-methoxyphenyl)-7H-pyrrolo[2,3d]pyrimidin-4-amine]
